Source: US9512176B2, “Age inhibitors” (Centre National de la Recherche Scientifique, priority 2005, dated 2016)
Non-standard residues stand in square brackets, D forms with d. Residues, ends and D or L forms follow the SMILES beside them. Dap = NC[C@H](N)C(=O)O

How the values were obtained:
RNase A = RNase A modifications induced by methylglyoxal (HPLC); type: biochemical; conditions: RNase A 0.08 mM, methylglyoxal 32 mM, compound 38 mM, 21 hours at 37° C.
Description: FIGS. 11 to 13 present the results obtained by HPLC for three compounds according to the present invention, L-DAPA-L-Ile (example 18), L-DAPA-L-Val (example 23) and L-DAPA-L-Leu (example 1), on RNase A modifications induced by methylglyoxal. HPLC conditions are as follows: C-18, Symmetry 300 (4.6×250 mm) column, injection volume 100 μl of reaction mixture diluted to 1/10; flow 1 ml/min; temperature 40° C.; solvent A: H2O+0.1% TFA; solvent B: 60/40 CH3CN/H2O+0.1% TFA; linear gradient of 20% B to 80% B in 20 minutes; detection: UV at 215 nm: PDA (chromatograms extracted at 215 nm).

[1] = system: seven strains of Salmonella (six mixed strains, strain TA98); assay: Ames test with and without human liver S9 fractions; type: cell-based; parameters: key to Six mixed strains / Strain TA98: −: non-mutagenic; +: mutagenic; conditions: for Six mixed strains / Strain TA98: mixture with methylglyoxal, 10/1/0.1 μM
Description: An Ames test was performed with L-DAPA-L-Leu (example 1) and L-DAPA-L-Val (example 23) alone and in combination with methylglyoxal on human liver S9 fractions and on seven strains of Salmonella.
The concentrations used in the Ames test were as follows: • L-DAPA-L-Leu alone or L-DAPA-L-Val alone: 10 μM, 1 μM and 0.1 μM. • L-DAPA-L-Leu/methylglyoxal mixture or L-DAPA-L-Val/methylglyoxal mixture: 10 μM, 1 μM and 0.1 μM. • Methylglyoxal: 10 μM.

lysozyme = assay: SDS PAGE electrophoresis of lysozyme incubated with methylglyoxal and inhibitor; type: biochemical; conditions: lysozyme 10 mg/ml, methylglyoxal 10 mM, inhibitor equimolar, 37° C., 48 hours
Description: (§1) Ribonuclease A and lysozyme (10 mg/ml) are incubated in the presence of methylglyoxal (10 mM) or in the presence of methylglyoxal and one of the inhibitors according to the present invention in an equimolar quantity at 37° C. After 48 hours of incubation, the proteins are analyzed by polyacrylamide gel electrophoresis (8%-16% SDS PAGE gel).

glyoxalase I = assay: Glyoxalase I treated with methylglyoxal: non-denaturing electrophoresis and enzymatic activity; type: biochemical
Description: MG reacts with a protein's lysine and arginine residues, thus altering the charges on the modified polypeptide. […] The exposure of glyoxalase I to MG (10 mM) for 24 hours increases the mobility of the protein toward the positive electrode, a change that is consistent with the loss of positive charges from the ε-amino and guanidino groups and the gain of negative charges.
The incubation of glyoxalase I, a key protein in the α-oxoaldehyde detoxification system, in the presence of methylglyoxal, modifies the protein. This modification causes a change in charge and a 50% decrease in enzymatic activity compared to the control.

somatostatin-14 = assay: Somatostatin-14 modifications induced by methylglyoxal (HPLC); type: biochemical; conditions: somatostatin-14 0.03 mm, methylglyoxal 3.6 mM, compound 4.3 mM, 24 hours at 37° C.
Description: FIGS. 9 and 10 present the results obtained by HPLC for two compounds according to the present invention, L-DAPA-L-Leu (example 1) and L-DAPA-L-Val (example 23), on somatostatin-14 modifications induced by methylglyoxal. HPLC conditions are as follows: C-18, Symmetry 300 (4.6×250 mm) column, injection volume 100 μl of reaction mixture; flow 1 ml/min; solvent A: H2O+0.1% TFA; solvent B: 80/20 CH3CN/H2O+0.1% TFA; linear gradient: from 20% B to 60% B in 15 minutes and isocratic from 60% B for 10 minutes; ambient temperature; detection: PDA (chromatograms extracted at 215 nm).
In these figures, (a) represents the results of somatostatin-14 alone; (b) represents the results of somatostatin-14+methylglyoxal; (c) represents the results of somatostatin-14+methylglyoxal+L-DAPA-L-Val (example 23) and (d) represents the results of somatostatin-14+methylglyoxal+L-DAPA-L-Leu (example 1).

Human insulin = assay: Modification of insulin by methylglyoxal (HPLC); type: biochemical; conditions: insulin 0.034 mM, methylglyoxal 3.4 mM, scavenger 4.08 mM, pH 7.45, 37° C.
Description: FIG. 1 presents the comparative effects of dicarbonyl scavengers in the form of dihydrochloride according to the present invention and the comparison with DAPA on the modification of insulin (Ins) by methylglyoxal (MG). The percentage of insulin is indicated following incubation with methylglyoxal in the presence or absence of dicarbonyl scavengers. Insulin (0.034 mM) is incubated in vitro in a 10 mM phosphate buffer, pH 7.45 (containing 0.1 M NaCl) with methylglyoxal (3.4 mM) in the presence of dicarbonyl scavengers (4.08 mM) for 21 hours at 37° C. Insulin concentration is measured by HPLC (same conditions as in FIG. 3).
FIGS. 3 to 8 present the results obtained by HPLC for two compounds according to the present invention, L-DAPA-L-Leu (example 1) and L-DAPA-L-Val (example 23), on insulin modifications induced by methylglyoxal. It can be observed that these modifications are prevented. The HPLC conditions are as follows: C-18, Symmetry 300 (4.6×250 mm) column, injection volume 100 μl of reaction mixture; flow 1 ml/min; temperature 40° C.; solvent A: H2O+0.1% TFA; solvent B: 60/40 CH3CN/H2O+0.1% TFA; linear gradient of 50% B to 55% B in 15 minutes; detection: UV at 215 nm: PDA (chromatograms extracted at 220 nm).
Human insulin (Ins) is incubated with methylglyoxal (MG) under physiological conditions. After 24 hours, the insulin is completely modified, as illustrated in FIG. 1 (Ins+MG).
On the other hand, insulin is incubated with methylglyoxal in the presence of an equimolar quantity of the AGE inhibitors according to the present invention under physiological conditions.

ribonuclease A [2] = assay: SDS PAGE electrophoresis of ribonuclease A incubated with methylglyoxal and inhibitor; type: biochemical; conditions: ribonuclease A 10 mg/ml, methylglyoxal 10 mM, inhibitor equimolar, 37° C., 48 hours
Description: as §1
The AGE inhibitors according to the present invention, namely L-DAPA-L-Leu (example 1) and L-DAPA-L-Ile (example 18), or AG (10 mM) are incubated with MG and ribonuclease A for […] at 37° C.

ribonuclease A [3] = assay: Enzymatic activity of ribonuclease A after treatment with methylglyoxal and inhibitors (methylene blue RNA staining); type: biochemical; conditions: ribonuclease A treated with methylglyoxal (MG) + inhibitor in equimolar quantity, 37° C.; control RNase 100, RNase + methylglyoxal 10.11%
Description: as §1
The enzymatic activity of ribonuclease A after treatment with methylglyoxal and the various inhibitors according to the present invention is measured using the methylene blue RNA staining technique of Greiner-Stöffele et al. (Anal. Biochem. (1996) 240, 24).

Structure (SMILES): CC(C)C[C@H](NC(=O)[C@@H](N)CN)C(=O)O [example 1, L-DAPA-L-Leu.2HCl] (H-[Dap]-Leu-OH)
- RNase A modifications induced by methylglyoxal (RNase A): prevent the modifications to RNase A
- Six mixed strains ([1]; Human S9: No): −
- Strain TA98 ([1]; Human S9: No): −
- Six mixed strains ([1]; Human S9: Yes (metabolites)): −
- Strain TA98 ([1]; Human S9: Yes (metabolites)): −
- mutagenicity ([1]; alone or in combination with methylglyoxal, TA98, mixed strains, human liver S9 fractions): neither substance (L-DAPA-L-Leu or L-DAPA-L-Val) was mutagenic
- protection from structural modifications (dimer form) caused by methylglyoxal (lysozyme): provides protection
- gain of negative charge of glyoxalase I exposed to MG (glyoxalase I; MG 10 mM, 24 hours, non-denaturing electrophoresis): inhibits the gain of negative charge
- inhibition of glyoxalase I enzymatic activity and structural modification by methylglyoxal (glyoxalase I; MG alone: 50% decrease in enzymatic activity): prevents the inhibition exerted by methylglyoxal and protects against structural modifications
- somatostatin-14 modifications induced by methylglyoxal (somatostatin-14): prevent the modifications induced by methylglyoxal
- modification of insulin by methylglyoxal (Human insulin): prevented
- protection from structural modifications (dimer form) caused by methylglyoxal (ribonuclease A [2]): provides protection
- Enzymatic activity (%) (ribonuclease A [3]): 93.91%
